Measurements reported in patent US4518528A, “α Amino fluoro ketones” (priority 1984, dated 1985).
Where a SMILES comes first, the peptide text is derived from it. [ ]: non-standard residue; d: D form. The star is where a group is joined. ξ: configuration not given here. ξF = NC(Cc1ccccc1)C(=O)O; Cbz = O=C(OCc1ccccc1)*; CH2F = FC*

What was measured:
glandular kallikrein = experiment: Inhibition of glandular kallikrein by the method of Example 23; type: biochemical; details: protease about 10 μM, ketone inhibitor about 0.1 mM
Procedure: (§1) An aqueous solution of elastase (0.3 μM) in 0.1M TES pH 8.2 containing CaCl2 (10 mM) was assayed against the synthetic substrate MeOSuc-Ala-Ala-Pro-Val-MNA. The liberated detecting group (MNA) was quantitated by fluorescence. A standard number of enzyme units were preincubated with each inhibitor at several concentrations for set time periods of 5, 15, 30, and 60 minutes at 37°; then all test samples were individually assayed for activity using the same synthetic substrate and conditions as per control with inhibitors absent. The amount of enzyme activity inhibited by each inhibitor was determined by subtracting the residual activity for each inhibitor against the control activity.
Following the method of Example 23 above, the serine protease glandular kallikrein is inhibited by the ketone inhibitor D-Val-Leu-ArgCH2 F with a protease concentration of about 10 μM and a ketone inhibitor concentration of about 0.1 mM.

cathepsin B [1] = experiment: Irreversible inhibition of purified cathepsin B, fluorescence assay with Bz-Val-Lys-Arg-AFC; type: biochemical, human and rat; details: for k3 (rate constant of inactivation) / Ki: pH 6.5, 10 mM DTT, 1 mM EDTA, 25°; for Ki: read-out: KI (inhibitor dissociation constant); for k3 /KI (inhibitor specificity constant): pH 6.5, 25°
Procedure: Enzyme activity was assayed using the synthetic oligopeptide substrate Bz-Val-Lys-Arg-AFC with 10 mM DTT and 1 mM of the activator salt EDTA at pH 6.5 by fluorescence detection of the liberated AFC. Units of enzyme activity were standardized per 100 ml of a 50 percent of glycerol-phosphate buffer solution. A standard concentration of enzyme ([…]) over set time periods of 3, 5, 10, 15, 20 and 30 minutes, 25°; then all test samples were individually assayed for activity using the same synthetic substrate and condition to determine the remaining units of activity of the purified enzyme. The amount of enzyme activity inhibited by each inhibitor was determined by subtracting the residual activity for each inhibitor against the control activity. […] The inhibitor specificity constant (k3 /KI) for Z-Phe-AlaCH2 F is 30 fold higher than for Z-Phe-AlaCHN2.

[2] = test system: porcine pancreatic elastase; experiment: Irreversible inhibition of elastase, fluorescence assay with MeOSuc-Ala-Ala-Pro-Val-MNA; type: biochemical; details: alkaline conditions (0.1M TES pH 8.2, 10 mM CaCl2), 37°
Procedure: as §1

cathepsin L = experiment: Inhibition of cathepsin L by the method of Example 22; type: biochemical; details: same conditions and concentrations of protease to ketone inhibitor as Example 22
Procedure: Enzyme activity was assayed using the synthetic oligopeptide substrate Bz-Val-Lys-Arg-AFC with 10 mM DTT and 1 mM of the activator salt EDTA at pH 6.5 by fluorescence detection of the liberated AFC. Units of enzyme activity were standardized per 100 ml of a 50 percent of glycerol-phosphate buffer solution. A standard concentration of enzyme (10 nM) was preincubated with each inhibitor (50 nM) over set time periods of 3, 5, 10, 15, 20 and 30 minutes, 25°; then all test samples were individually assayed for activity using the same synthetic substrate and condition to determine the remaining units of activity of the purified enzyme. The amount of enzyme activity inhibited by each inhibitor was determined by subtracting the residual activity for each inhibitor against the control activity.

cathepsin B [3] = target: T1, cathepsin B (Rattus norvegicus, UniProt P00787); experiment: Rate of inhibition of cathepsin B in rat tissue homogenates; type: biochemical; details: inhibitor 0.10 μM, 25°
T1 construct: cathepsin B in rat spleen, pancreas, liver and kidney tissue homogenates; from tissue; host or cells: rat spleen, pancreas, liver and kidney (supernatant of homogenates)
Procedure: Enzyme activity was assayed using the synthetic oligopeptide substrate Bz-Val-Lys-Arg-AFC with 10 mM DTT and 1 mM of the activator salt EDTA at pH 6.5 by fluorescence detection of the liberated AFC. Units of enzyme activity were standardized per 100 ml of a 50 percent of glycerol-phosphate buffer solution. A standard concentration of enzyme (10 nM) was preincubated with each inhibitor (50 nM) over set time periods of 3, 5, 10, 15, 20 and 30 minutes, 25°; then all test samples were individually assayed for activity using the same synthetic substrate and condition to determine the remaining units of activity of the purified enzyme. The amount of enzyme activity inhibited by each inhibitor was determined by subtracting the residual activity for each inhibitor against the control activity. […] The inhibitor specificity constant (k3 /KI) for Z-Phe-AlaCH2 F is 30 fold higher than for Z-Phe-AlaCHN2.
The rate of inhibition of cathepsin B in rat spleen, pancreas, liver and kidney tissue homogenates was assayed using the inhibitors: Z-Phe-AlaCHN2; Z-Phe-AlaCH2 Cl; and Z-Phe-AlaCH2 F.
The proceding tissues were homogenized, centrifuged at 13,000 rpm for 25 minutes and the supernatant removed. Aliquots of the supernatant were diluted with water to yield a concentration of 0.01 μM. The method of Example 9 was followed. As soon in Table III, the inhibition by the three inhibitors relevant to Cathepsin B were compared for each of the tissue samples. Results are expressed as .tau. (the half-time of inactivation, inhibition). […] The concentration for the inhibitors was 0.10 μM and the incubation temperature was 25°.

trypsin = experiment: Inhibition of trypsin by the method of Example 23; type: biochemical; details: protease about 10 μM, ketone inhibitor about 0.1 mM
Procedure: as §1
Following the method of Example 23 above, the serine protease trypsin is inhibited by the ketone inhibitor Z-LysCH2 F with a protease concentration of about 10 μM and a ketone inhibitor concentration of about 0.1 mM.

plasminogen activator = experiment: Inhibition of plasminogen activator by the method of Example 23; type: biochemical; details: protease about 50 μM, ketone inhibitor about 0.1 mM
Procedure: as §1
Following the method of Example 23, above, the serine protease plasminogen activator is inhibited by MeOSuc-Gly-Gly-ArgCH2 F under the same conditions with a protease concentration of about 50 μM and a ketone inhibitor concentration of about 0.1 mM.

plasma kallikrein = experiment: Inhibition of plasma kallikrein by the method of Example 23; type: biochemical; details: protease about 10 μM, ketone inhibitor about 0.1 mM
Procedure: as §1
Following the method of Example 23, above, the serine protease plasma kallikrein is inhibited by the ketone inhibitor D-Pro-Phe-ArgCH2 F under the same conditions with a protease concentration of about 10 μM and ketone inhibitor concentration of about 0.1 mM.

T1 sequence (P00787 80-339): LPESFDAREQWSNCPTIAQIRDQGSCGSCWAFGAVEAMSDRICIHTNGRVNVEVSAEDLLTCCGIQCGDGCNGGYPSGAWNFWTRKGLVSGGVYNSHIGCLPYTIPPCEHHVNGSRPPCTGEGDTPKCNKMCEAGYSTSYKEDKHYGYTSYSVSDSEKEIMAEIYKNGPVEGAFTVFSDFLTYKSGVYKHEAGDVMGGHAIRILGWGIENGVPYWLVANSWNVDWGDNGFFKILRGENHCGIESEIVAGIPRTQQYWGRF

## CC(C)C[C@H](NC(=O)[C@H](N)C(C)C)C(=O)N[C@@H](CCCNC(=N)N)C(=O)CF [D-Val-Leu-ArgCH2 F] (HELM PEPTIDE1{[dV].L.R.[FC[*:1]]}$$$$V2.0)
Glandular kallikrein
  inhibition of glandular kallikrein (in words): inhibited

## CC(NC(=O)[C@H](Cc1ccccc1)NC(=O)OCc1ccccc1)C(=O)CF (stereo partly drawn) [Z-Phe-AlaCH2 F, 3-(N-Benzyloxycarbonylphenylalanylamido)-1-fluoro-2-butanone]
Cathepsin B [1]; 0.1 μM inhibitor
  inhibition of purified cathepsin B (in words): effective inhibitor
Cathepsin B [1]; purified cathepsin B
  k3 /KI fold higher than for Z-Phe-AlaCHN2: 30 fold
  k3 (rate constant of inactivation): 9.2±1.3×10^-3 s^-1
  Ki: 0.57 ± 0.09 µM
  k3 /KI (inhibitor specificity constant): 16,200 M^-1 s^-1
[2]
  inhibition of porcine pancreatic elastase (in words): inhibits
Cathepsin L
  inhibition of cathepsin L (in words): inhibited
Cathepsin B [3]; rat KIDNEY homogenate
  .tau. Half-Time (half-time of inactivation): 7.9 min
Cathepsin B [3]; rat LIVER homogenate
  .tau. Half-Time (half-time of inactivation): 8.5 min
Cathepsin B [3]; rat PANCREAS homogenate
  .tau. Half-Time (half-time of inactivation): 12.4 min
Cathepsin B [3]; rat SPLEEN homogenate
  .tau. Half-Time (half-time of inactivation): 14.2 min

## NCCCCC(NC(=O)OCc1ccccc1)C(=O)CF (stereo not drawn) [Z-LysCH2 F]
trypsin
  inhibition of trypsin (in words): inhibited

## COC(=O)CCC(=O)NCC(=O)NCC(=O)NC(CCCNC(=N)N)C(=O)CF (stereo not drawn) [MeOSuc-Gly-Gly-ArgCH2 F]
Plasminogen activator
  inhibition of plasminogen activator (in words): inhibited

## C[C@H](NC(=O)[C@H](Cc1ccccc1)NC(=O)OCc1ccccc1)C(=O)CCl [Z-Phe-AlaCH2 Cl]
Cathepsin B [3]; rat KIDNEY homogenate
  .tau. Half-Time (half-time of inactivation): 76.6 min
Cathepsin B [3]; rat LIVER homogenate
  .tau. Half-Time (half-time of inactivation): 66.5 min
Cathepsin B [3]; rat PANCREAS homogenate
  .tau. Half-Time (half-time of inactivation): 21.4 min
Cathepsin B [3]; rat SPLEEN homogenate
  .tau. Half-Time (half-time of inactivation): 74.2 min

## O=C(N[C@@H](Cc1ccccc1)C(=O)NC(Cc1ccccc1)C(=O)CF)OCc1ccccc1 (stereo partly drawn) [Z-Phe-PheCH2 F] (Cbz-Phe-[ξF]-CH2F)
Cathepsin L
  inhibition of cathepsin L (in words): inhibited

## C[C@H](NC(=O)[C@H](Cc1ccccc1)NC(=O)OCc1ccccc1)C(=O)C=[N+]=[N-] [Z-Phe-AlaCHN2]
Cathepsin B [1]; purified cathepsin B
  k3 (rate constant of inactivation): 4.1±1.7×10^-3 s^-1
  Ki: 7.4 ± 3 µM
  k3 /KI (inhibitor specificity constant): 546 M⁻¹ s⁻¹
Cathepsin B [3]; rat KIDNEY homogenate
  .tau. Half-Time (half-time of inactivation): 20.1 min
Cathepsin B [3]; rat LIVER homogenate
  .tau. Half-Time (half-time of inactivation): 22.4 min
Cathepsin B [3]; rat PANCREAS homogenate
  .tau. Half-Time (half-time of inactivation): 15.8 min
Cathepsin B [3]; rat SPLEEN homogenate
  .tau. Half-Time (half-time of inactivation): 26.4 min

## N=C(N)NCCC[C@H](NC(=O)[C@H](Cc1ccccc1)NC(=O)[C@H]1CCCN1)C(=O)CF [D-Pro-Phe-ArgCH2 F] (HELM PEPTIDE1{[dP].F.R.[FC[*:1]]}$$$$V2.0)
Plasma kallikrein
  inhibition of plasma kallikrein (in words): inhibited
